Patent publication US5958770A, “Glycoalkaloids” (priority 1990, dated 1999)

How the values were obtained:
tumour = details: cited from earlier work
human fibroblasts = experiment: cells; details: FB; NSE = no significant effect
Method: (§1) The inhibition of cell replication by steroid alkaloids is determined by the inhibition of the incorporation of ^3 H thymidine into DNA. Using this technique, it should be possible to monitor any preferential inhibition of uptake of ^3 H thymidine by cancer cells.
(§2) Cells were maintained as monolayers in RPM1-1640 tissue culture media (Grant Island Biological Co) buffered with N-2-hydroxy-ethylpiperazine-N-2-ethanesulphonic acid pH 7.5 and supplemented with 10% heat inactivated fetal calf serum (FCS): (i) a human ovarian cancer cell line (C180-135), (ii) HeLa cells, (iii) human fibroblasts, and (iv) as a cell suspension of lymphoblastoid cells (EBV transformed lymphocytes). Monolayers were trypsinized to form a cell suspension. […] Cell concentration was adjusted to 2×10^5 cells/ml, and 2×10^4 cells were added in replicates of 10 to the wells (1×10^5 /ml well) of HA microtitre plates (Millipore Corp., USA). The cells were preincubated at 37.5° C. for 7 hours prior to the addition of 50 μl of the cytotoxic drug followed by the addition of 50 μl 5 uCi/ml of ^3 H thymidine, in the same tissue culture media 21 hours later. Incubation was continued for a total of 24 hours, which includes the pre-incubation time.
(§3) Appropriate DMSO cytotoxicity studies were also conducted. Solasodine glycosides were supplied as a mixture (BEC), and as separate components, solamargine, solasonine, a mixture of di- and mono-glycosides and the aglycone solasodine. All cytotoxic drugs were further diluted with HIFCS/TCM before testing. 5×10^4 ovarian cancer cells (200 μl/chamber of a chamber of microscope slide (Lab Tek Miles Scientific) were used. Controls received 50 μl HIFCS/TCM and experimental chambers 50 μl of solasodine glycosides (BEC) 1.5-3.8 μM/L after 7 hrs preincubation, and incubated for a further 3 hrs. Similarly, the cells were treated with the aglycone solasodine 19.4-96.8 μM/L. The cells were fixed and examined by the Papanicolaou method.

HeLa cells = experiment: cells
Method: as §1, §2, §3

[1] = system: lymphoblastoid cells (EBV transformed lymphocytes); experiment: cells
Method: as §1, §2, §3

[2] = Inhibition of tritiated thymidine uptake, PWM stimulated lymphocytes; details: human, pwm stimulated lymphocytes
Method: (§4) This was cultured for 48 hours and pulsed with tritiated thymidine for a further 24 hours. In the inhibition studies, the cell concentration was 8×10^5 /ml.
(§5) All cells were harvested by vacuum filtration by washing in 250 μl of each of phosphate buffered saline, 5% trichloroacetic acid, 1.0M NaCl and 95% ethanol and subjected to β-scintillatian counting. Similarly, peripheral human blood lymphocytes were isolated and cultured 2×10^5 lymphocytes in CO2 1640TCM 10% HIFCS. Lymphocytes were stimulated with 20 μg/ml PHA, Con A or PWM, and cultured for 48 hrs followed by a 24 hr pulse. […] Cell concentrations were 8×10^4 /well total volume 250 μl. The dpm of the experimental replicates were expressed as a percentage of the mean value of the controls, and the mean value of the experimental replicates calculated.

[3] = system: ovarian cancer cells, HeLa cells, lymphoblastoid cells, fibroblasts; experiment: Cytotoxicity / inhibition of tritiated thymidine uptake, cell types taken together; details: normal versus cancer cells
Method: as §1, §2, §3

[4] = Inhibition of tritiated thymidine uptake, PHA stimulated lymphocytes; details: human, pha stimulated lymphocytes
[5] = Inhibition of tritiated thymidine uptake, unstimulated lymphocytes; details: human, unstimulated lymphocytes
Method: as §4, §5

[6] = Inhibition of tritiated thymidine uptake, Con A stimulated lymphocytes; details: human, con a stimulated lymphocytes
Method: as §4, §5

ovarian cancer cells = experiment: Inhibition of tritiated thymidine uptake, ovarian cancer cells; details: read-out: LD50 (dose to inhibit 50% tritiated thymidine uptake); OvCa
Method: as §1, §2, §3

cancer = details: rats; cited from earlier work

Which “tumour inhibition” value (tumour) does the source give for `C[C@H]1CC[C@]2(NC1)O[C@H]1C[C@H]3[C@@H]4CC=C5C[C@@H](O[C@@H]6O[C@H](CO)[C@@H](O[C@@H]7O[C@@H](C)[C@H](O)[C@@H](O)[C@H]7O)[C@H](O)[C@H]6O[C@@H]6O[C@@H](C)[C@H](O)[C@@H](O)[C@H]6O)CC[C@]5(C)[C@H]4CC[C@]3(C)[C@H]1[C@@H]2C` [B-solamarine] here?
The value was “tumour inhibitor”.

What does the source list for `O=C(O)CCCc1ccc(N(CCCl)CCCl)cc1` [chlorambucil, reference compound]?
LD50 (dose to inhibit 50% tritiated thymidine uptake) (human fibroblasts): NSE; TR50 (thymidine ratio relative to ovarian cancer cells) (HeLa cells; HeLa / OvCa): 0.79; IC50 (HeLa cells; read-out: LD50 (dose to inhibit 50% tritiated thymidine uptake), HeLa): 47.5 µM; TR50 (thymidine ratio relative to ovarian cancer cells) ([1]; LCL / OvCa): 0.45; IC50 ([1]; read-out: LD50 (dose to inhibit 50% tritiated thymidine uptake), LCL): 27 µM; CC50 [2]: 22 µM; cytotoxicity to normal cells relative to cancer cells [3]: equally or more cytotoxic to normal cells relative to cancer cells; CC50 [4]: 24.6 µM; CC50 [5]: 33 µM; CC50 [6]: 33 µM; IC50 (ovarian cancer cells): 60 µM

For “rhamnosyl [4→3] Solasodine [Solaplumbin]”, which “anticancer properties” value (cancer) is on record?
The value was “anticancer properties in rats”.
